Experimental data: US20260209249A1, “NOVEL TRICYCLIC COMPOUND AS KRAS G12D INHIBITOR, AND USE THEREOF” (SK Biopharmaceuticals Co., priority 2022, published 2026)
pIC50: −log10 of the molar value.

Key:
[1] = biological target: T1, GppNHp-KRAS G12D mutant protein (Homo sapiens, UniProt P01116, G12D); assay: Differential scanning fluorimetry (DSF) binding affinity to GppNHp-KRAS G12D mutant protein; details: DSF thermal shift, 10 μM compound, 4 μg KRAS protein, 50 mM HEPES (pH 7.5)
T1 construct: purchased Daegu Gyeongbuk Medical Innovation Foundation (DGMIF), made to order
How it was run: (§1)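 Each sample held 4 μg recombinant KRAS G12D (GDP- or GppNHp-bound) and 10 μM compound, incubated 30 min at room temperature before adding 2× SYPRO Orange. The GDP form was run in kit buffer, the GppNHp form in 50 mM HEPES pH 7.5. Melt was 25–99 °C at 0.05 °C/s (580/623 nm), reported as ΔTm versus no compound.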

[2] = biological target: T2, GDP-KRAS G12D mutant protein (Homo sapiens, UniProt P01116, G12D); assay: Differential scanning fluorimetry (DSF) binding affinity to GDP-KRAS G12D mutant protein; details: DSF thermal shift, 10 μM compound, 4 μg KRAS protein
T2 construct: purchased Daegu Gyeongbuk Medical Innovation Foundation (DGMIF), made to order
How it was run: as §1

[3] = system: KRAS G12D mutant pancreatic cancer cell line AsPC-1; assay: Cell viability assay using KRAS G12D mutant cells (AsPC-1, 3D culture, celltiter-glo 3D); assay type: cell-based; details: Homo sapiens, ASPC1, 5th day after compound treatment
Procedure: Test Example 3: Cell Viability Assay Using KRAS G12D Mutant Cells
The KRAS G12D mutant pancreatic cancer cell line AsPC-1 was obtained from the Korean Cell Line Bank (KCLB) and maintained in 100-mm dishes or T75 (75 cm^2) flasks using RPM11640+10% fetal bovine serum (FBS)+1% Penicillin-Streptomycin medium. The cells were cultured at 37° C. with 5% CO2. The number of viable cells was counted using Countess (Invitrogen).
When AsPC-1 cells reached 85-100% confluence in the flask, the cells were harvested using 1× trypsin/EDTA solution, and seeded into a 96-well plate for 3D culture at 1000 cells/100 μL/well. The next day, the compounds were diluted ⅕ with DMSO from 10 μM or 50 μM to 0.0001 μM or 0.0006 μM and treated 1:1 (v/v) in the plate where the cells were seeded.
Cell culture was terminated on the 5th day after compound treatment, and cell viability at each concentration was measured using the celltiter-glo 3D cell viability assay kit.
Cell viability assays were normalized to 100% for the DMSO-treated group and expressed as a percentage of the number of viable cells when treated with the compound.
Cell viability %=(average RLU of group treated with test substance−average RLU of untreated group)/(average RLU of group treated with DMSO−average RLU of untreated group)×100
The data were modeled using GraphPad Prism 9 (GraphPad Software) by applying a nonlinear regression curve fit with a four-parameter sigmoidal dose-response curve to determine cell viability as a function of compound concentration. The 50% inhibitory concentration (IC50) corresponds to the concentration at which the curve intersects the midpoint of cell viability. The results of the inhibitory effect of the compounds according to one embodiment of the present application on the viability of KRAS G12D mutant cells are presented in Table 4.

[4] = system: ERK phosphorylation (pERK) induced by KRAS G12D mutation; assay: Inhibitory activity against ERK phosphorylation (pERK) induced by KRAS G12D mutation, immunofluorescence assay in AsPC-1 cells; assay type: cell-based; details: Homo sapiens, ASPC1, 3 h drug treatment, pERK (Thr202/Tyr204) signal normalized to DAPI
From the text: Test Example 2: Measurement of Inhibitory Activity Against ERK Phosphorylation (pERK) Induced by KRAS G12D Mutation (Immunofluorescence Assay)
Immunofluorescence is a method used to detect specific substances within cells or tissues through antigen-antibody interactions, and allows for the identification of the presence or absence of specific proteins by using antibodies labeled with various fluorescent dyes. After a primary antibody that recognizes a specific protein selectively binds to the epitope, a fluorescent antibody (secondary antibody) is bound to the primary antibody.
It was confirmed as follows that the compounds according to an embodiment of the present application inhibit phosphorylation of extracellular signal-regulated kinases (Phospho-ERK, pERK) induced by KRAS G12D mutation.
AsPC-1 cells were seeded at a density of 10,000 cells/well in RPMI-1640 medium containing 10% FBS and 1% Penicillin-Streptomycin in 384-well plates (Perkinelmer, #6057300) and allowed to attach for 16 h. After the cells attached to the plate, the cells were treated with drugs at a maximum concentration of 10 μM with a 3-fold serial dilution. After 3 h of drug treatment, the medium was removed and the cells were treated with 50 μL of 4% formaldehyde (Biosesang, #PC2031-050-00) for 20 min and washed three times with 50 μL of phosphate buffered saline (PBS).
50 μL of PBS containing 0.3% Triton X-100 (Sigma, #T8787-250 mL) was added and reacted for 20 minutes to allow antibody penetration into cells, and then the plate was washed three times with 50 μL of PBS. To block nonspecific binding of antibodies to the plate, 50 μL of PBS containing 2% BSA (sigma, #A7906-500G) and 0.01% Tween-20 (Sigma, #P1379-500 mL) (hereinafter referred to as PBS-T) was added, and reacted at room temperature for 2 hours.
To detect pERK, the primary antibody (cell signaling, #9101) was diluted 1:500 in PBS-T containing 2% BSA, 50 μL was added, and the plate was stored in a refrigerator at 4° C. for 16 hours to react, followed by washing three times with 50 μL of PBS-T. To visualize the primary antibody, the secondary antibody, i.e., anti-rabbit-Alexa Fluor 488 (ThermoFisher, #A11008), was diluted 1:1000 in PBS-T containing 2% BSA, 50 μL was added, and after reaction at room temperature for 1 hour, the plate was washed three times with 50 μL of PBS-T. Next, to visualize the nuclei of cells, DAPI (Thermofisher, #62248, 1 mg/mL) was diluted 1:1000 in PBS-T, 50 μL each was added, reacted at room temperature for 10 minutes, and washed three times with 50 μL of PBS-T. 50 μL of PBS-T was added to each well, and the plate was read for fluorescence value using HCS equipment (MOLECULAR DEVICES/ImageXpress Micro).
Data analysis was performed by normalizing the pERK (Thr202/Tyr204) signal to the DAPI signal and calculating the percentage relative to the DMSO as a control. The IC50 value was determined by fitting a four-parameter dose-response curve using the GraphPad Prism software (version 8.4.3), and interpolating the concentration at which 50% inhibition occurred. The results of calculating the inhibitory efficacy of the compounds according to one embodiment of the present application against KRAS G12D mutation-induced pERK activity are shown in Table 3.

Compound | GppNHp-KRAS G12D (ΔTmD, ° C.) [1] [°C] | GDP-KRAS G12D (ΔTmD, ° C.) [2] [°C] | pIC50 [3] | pIC50 [4]
C#Cc1c(F)ccc2cc(O)cc(-c3cc4nc(OC[C@@]56CCCN5C[C@H](F)C6)nc(N5C[C@H]6CC[C@@H](C5)N6)c4n4ccnc34)c12 [Example 2, 4-(1-((1 R,5S)-3,8-diazabicyclo[3.2.1]octan-3-yl)-3-(((2R,7aS)-2-fluorotetrahydro-1H-pyrrolizin-7a(5H)-yl)methoxy)imidazo[1′,2′:1,6]pyrido[3,2-d]pyrimidin-6-yl)-5-ethynyl-6-fluoronaphthalen-2-ol] | 5.61 | 9.91 | 6.65 | 6.77
C#Cc1c(F)ccc2cc(O)cc(-c3cc4nc(OCC5(CN6CCOCC6)CC5)nc(N5C[C@H]6CC[C@@H](C5)N6)c4n4ccnc34)c12 [Example 7, 4-(1-((1 R,5S)-3,8-diazabicyclo[3.2.1]octan-3-yl)-3-((1-(morpholinomethyl)cyclopropyl)methoxy)imidazo[1′,2′:1,6]pyrido[3,2-d]pyrimidin-6-yl)-5-ethynyl-6-fluoronaphthalen-2-ol] | 3.24 | 8.57 | 6.96 | 6.57
C#Cc1c(F)ccc2cc(O)cc(-c3cc4nc(OCC5(CN6CCOC[C@H]6C)CC5)nc(N5C[C@H]6CC[C@@H](C5)N6)c4n4ccnc34)c12 [Example 8, 4-(1-((1 R,5S)-3,8-diazabicyclo[3.2.1]octan-3-yl)-3-((1-(((R)-3-methylmorpholino)methyl)cyclopropyl)methoxy)imidazo[1′,2′:1,6]pyrido[3,2-d]pyrimidin-6-yl)-5-ethynyl-6-fluoronaphthalen-2-ol] | 3.39 | 9.02 | 7.30 | 6.83
C#Cc1c(F)ccc2cc(O)cc(-c3cc4nc(OCC5(CN6CCC7(CC6)CC7(F)F)CC5)nc(N5C[C@H]6CC[C@@H](C5)N6)c4n4ccnc34)c12 [Example 9, 4-(1-((1R,5S)-3,8-diazabicyclo[3.2.1]octan-3-yl)-3-((1-((1,1-difluoro-6-azaspiro[2.5]octan-6-yl)methyl)cyclopropyl)methoxy)imidazo[1′,2′:1,6]pyrido[3,2-d]pyrimidin-6-yl)-5-ethynyl-6-fluoronaphthalen-2-ol] | 3.39 | 8.87 | 7.30 | 6.78
C#Cc1c(F)ccc2cc(O)cc(-c3cc4nc(OCC5(CN6CCO[C@H](C)C6)CC5)nc(N5C[C@H]6CC[C@@H](C5)N6)c4n4ccnc34)c12 [Example 11, 4-(1-((1R,5S)-3,8-diazabicyclo[3.2.1]octan-3-yl)-3-((1-(((R)-2-methylmorpholino)methyl)cyclopropyl)methoxy)imidazo[1′,2′:1,6]pyrido[3,2-d]pyrimidin-6-yl)-5-ethynyl-6-fluoronaphthalen-2-ol] | 2.49 | 9.74 | 6.85 | 6.76
C#Cc1c(F)ccc2cc(O)cc(-c3cc4nc(OCC5(CN6C[C@@H]7C[C@H]6CO7)CC5)nc(N5C[C@H]6CC[C@@H](C5)N6)c4n4ccnc34)c12 [Example 12, 4-(3-((1-(((1S,4S)-2-oxa-5-azabicyclo[2.2.1]heptan-5-yl)methyl)cyclopropyl)methoxy)-1-((1 R,5S)-3,8-diazabicyclo[3.2.1]octan-3-yl)imidazo[1′,2′:1,6]pyrido[3,2-d]pyrimidin-6-yl)-5-ethynyl-6-fluoronaphthalen-2-ol] | 2.65 | 9.61 | 6.01 | 5.97
C#Cc1c(F)ccc2cc(N)cc(-c3cc4nc(OC[C@@]56CCCN5C[C@H](F)C6)nc(N5[C@@H]6CC[C@H]5CNC6)c4n4ccnc34)c12 [Example 14, 4-(1-((1R,5S)-3,8-diazabicyclo[3.2.1]octan-8-yl)-3-(((2R,7aS)-2-fluorotetrahydro-1H-pyrrolizin-7a(5H)-yl)methoxy)imidazo[1′,2′:1,6]pyrido[3,2-d]pyrimidin-6-yl)-5-ethynyl-6-fluoronaphthalen-2-amine] | 4.73 | 7.98 | 7.28 | 7.12
C#Cc1c(F)ccc2cc(O)cc(-c3cc4nc(OCC5(CN6CC[C@@H](F)C6)CC5)nc(N5[C@@H]6CC[C@H]5CNC6)c4n4ccnc34)c12 [Example 16, 4-(1-((1R,5S)-3,8-diazabicyclo[3.2.1]octan-8-yl)-3-((1-(((R)-3-fluoropyrrolidin-1-yl)methyl)cyclopropyl)methoxy)imidazo[1′,2′:1,6]pyrido[3,2-d]pyrimidin-6-yl)-5-ethynyl-6-fluoronaphthalen-2-ol] | 4.27 | 9.01 | 7.03 | 6.75
C#Cc1c(F)ccc2cc(O)cc(-c3cc4nc(OC[C@@]56CCCN5C/C(=C\F)C6)nc(N5[C@@H]6CC[C@H]5CNC6)c4n4ccnc34)c12 [Example 23, 4-(1-((1R,5S)-3,8-diazabicyclo[3.2.1]octan-8-yl)-3-(((S,Z)-2-(fluoromethylene)tetrahydro-1H-pyrrolizin-7a(5H)-yl)methoxy)imidazo[1′,2′:1,6]pyrido[3,2-d]pyrimidin-6-yl)-5-ethynyl-6-fluoronaphthalen-2-ol] | 6.94 | 9.90 | 7.62 | 7.60
C#Cc1c(F)ccc2cc(O)cc(-c3cc4nc(OC[C@@]56CCCN5C/C(=C\F)C6)nc(N5C[C@H]6CC[C@@H](C5)N6)c4n4ccnc34)c12 [Example 29, 4-(1-((1R,5S)-3,8-diazabicyclo[3.2.1]octan-3-yl)-3-(((S,Z)-2-(fluoromethylene)tetrahydro-1H-pyrrolizin-7a(5H)-yl)methoxy)imidazo[1′,2′:1,6]pyrido[3,2-d]pyrimidin-6-yl)-5-ethynyl-6-fluoronaphthalen-2-ol] | 6.82 | 12.01 | 7.72 | 7.82
